The record followed here is patent US20200131669A1, “CYCLIC PEPTIDE COMPOUND HAVING HIGH MEMBRANE PERMEABILITY, AND LIBRARY CONTAINING SAME” (Chugai Seiyaku Kabushiki Kaisha, priority 2017, published 2020).

Starred links: 1 amine or outer side, 2 acyl side, 3 side chain; linkers in the order of their positions; H or OH if unused. Positions of bridges follow the written chain, without caps; N, C: chain ends. Non-standard residues stand in square brackets, D forms with d. Residues, ends and D or L forms follow the SMILES beside them. ξ: configuration not given here. *: point of attachment. X7 = CC(C(=O)[C@H](Cc1ccccc1)N(C)[*:1])[C@@H](Cc1ccccc1)C(=O)[*:2]; hhPhe = N[C@@H](CCCc1ccccc1)C(=O)O; NMeF = CN[C@@H](Cc1ccccc1)C(=O)O; 3Pal = N[C@@H](Cc1cccnc1)C(=O)O; NMeD = CN[C@@H](CC(=O)O)C(=O)O; aThr = C[C@H](O)[C@H](N)C(=O)O; NMeL = CN[C@@H](CC(C)C)C(=O)O; ξNMeF = CNC(Cc1ccccc1)C(=O)O; NMeV = CN[C@H](C(=O)O)C(C)C; NMeA = CN[C@@H](C)C(=O)O; Piperidide = C1CCN(*)CC1; dNMeA = CN[C@H](C)C(=O)O; NPrGly = CCCNCC(=O)O; Sar = CNCC(=O)O; tBu = CC(C)(C)*

The first data set in a line: Caco-2 membrane permeability, improved method as used in the following Examples (96-well, 20 to 24 h preincubation). It counts as in vitro ADME. Particulars: human, Caco-2, Caco-2 (cm/sec). In outline:
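Caco-2 monolayers were grown three weeks and preincubated 20–24 h at 37 °C with compound in DMEM+FaSSIF (1% DMSO) apically. The assay then used compound in FaSSIF/HBSS (1% DMSO, pH 6.0) apically and HBSS with 4% BSA (pH 7.4) basally. Basal samples were taken at 180 min for LC/MS, and Papp (cm/sec) was calculated.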
In turn, `CC(C)C[C@H]1C(=O)N[C@@H](CCCc2ccccc2)C(=O)N(C)[C@@H](Cc2ccccc2)C(=O)N(C)[C@@H](C(C)C)C(=O)N[C@H](C(=O)N2CCCCC2)CC(=O)N[C@H](C)C(=O)N(C)C(Cc2ccccc2)C(=O)N[C@@H](C(C)C)C(=O)N(C)[C@@H](CC(C)C)C(=O)N[C@@H]([C@@H](C)O)C(=O)N(C)CC(=O)N1C` (stereo partly drawn) [pd193] ([dA][ξNMeF]V[NMeL]T[Sar][NMeL][hhPhe][NMeF][NMeV]D-Piperidide; lactam N-11) displayed a Papp A→B at 180 min of 1 ×10⁻⁶ cm/s. Still for that read-out and setting: the result for `CCCN1CC(=O)N(C)[C@@H](CC(C)C)C(=O)N[C@@H](COC(C)(C)C)C(=O)N(C)[C@@H](Cc2ccccc2)C(=O)N(C)[C@@H](Cc2ccccc2)C(=O)N[C@H](C(=O)N2CCCCC2)CC(=O)N[C@H](C)C(=O)N(C)[C@@H](Cc2ccccc2)C(=O)N[C@@H](C(C)C)C(=O)N(C)[C@@H](CC(C)C)C(=O)N[C@@H]([C@@H](C)O)C1=O` [pd194] ([dA][NMeF]V[NMeL]T[NPrGly][NMeL]S(tBu)[NMeF][NMeF]D-Piperidide; lactam N-11) reads 5.3 ×10⁻⁶ cm/s; that for `CCCN1CC(=O)N(C)[C@@H](Cc2ccccc2)C(=O)N[C@@H]([C@@H](C)CC)C(=O)N(C)[C@@H](Cc2ccccc2)C(=O)N[C@@H]([C@@H](C)O)C(=O)N(C)CC(=O)N(C)[C@@H](Cc2ccccc2)C(=O)N(C)[C@@H](CC(C)C)C(=O)N[C@@H](COC(C)(C)C)C(=O)N(C)[C@@H](C(C)C)C(=O)N[C@H](C(=O)N2CCCCC2)CC1=O` [pd195] ([NPrGly][NMeF]I[NMeF]T[Sar][NMeF][NMeL]S(tBu)[NMeV]D-Piperidide; lactam N-11), 5 ×10⁻⁶ cm/s. Still for that read-out and setting: the result for `CC(C)C[C@@H]1NC(=O)[C@H](Cc2ccccc2)N(C)C(=O)[C@H](C)N(C)C(=O)C[C@@H](C(=O)N2CCCCC2)NC(=O)[C@H](C(C)C)N(C)C(=O)[C@H](Cc2ccccc2)N(C)C(=O)[C@H](COC(C)(C)C)NC(=O)[C@H](CC(C)C)N(C)C(=O)CN(C)C(=O)[C@H](Cc2cccnc2)NC(=O)[C@H](CC(C)C)N(C)C1=O` [pd197] ([NMeA][NMeF]L[NMeL][3Pal][Sar][NMeL]S(tBu)[NMeF][NMeV]D-Piperidide; lactam N-11) reads 3 ×10⁻⁶ cm/s; that for `CC(C)C[C@@H]1NC(=O)[C@H](Cc2ccccc2)N(C)C(=O)[C@@H](C)N(C)C(=O)C[C@@H](C(=O)N2CCCCC2)N(C)C(=O)[C@H](Cc2ccccc2)N(C)C(=O)[C@H](Cc2ccccc2)N(C)C(=O)[C@H](COC(C)(C)C)NC(=O)[C@H](C(C)C)N(C)C(=O)CN(C)C(=O)[C@H]([C@@H](C)O)NC(=O)[C@H](CC(C)C)N(C)C1=O` [pd199] ([dNMeA][NMeF]L[NMeL]T[Sar][NMeV]S(tBu)[NMeF][NMeF][NMeD]-Piperidide; lactam N-11), 2.6 ×10⁻⁶ cm/s. On the same count and under the same terms, the result for `CC(C)C[C@@H]1NC(=O)[C@H](Cc2ccccc2)N(C)C(=O)[C@H]2CCCN2C(=O)C[C@@H](C(=O)N2CCCCC2)N(C)C(=O)[C@H](Cc2ccccc2)N(C)C(=O)[C@H](Cc2ccccc2)N(C)C(=O)[C@H](COC(C)(C)C)NC(=O)[C@H](C(C)C)N(C)C(=O)CN(C)C(=O)[C@H]([C@@H](C)O)NC(=O)[C@H](CC(C)C)N(C)C1=O` [pd200] ([dP][NMeF]L[NMeL]T[Sar][NMeV]S(tBu)[NMeF][NMeF][NMeD]-Piperidide; lactam N-11) reads 2.6 ×10⁻⁶ cm/s; that for `CC(C)C[C@@H]1NC(=O)[C@H](Cc2ccccc2)N(C)C(=O)[C@H](C)N(C)C(=O)C[C@@H](C(=O)N2CCCCC2)N(C)C(=O)[C@H](Cc2ccccc2)N(C)C(=O)[C@H](Cc2ccccc2)N(C)C(=O)[C@H](COC(C)(C)C)NC(=O)[C@H](C(C)C)N(C)C(=O)CN(C)C(=O)[C@H]([C@@H](C)O)NC(=O)[C@H](CC(C)C)N(C)C1=O` [pd202] ([NMeA][NMeF]L[NMeL]T[Sar][NMeV]S(tBu)[NMeF][NMeF][NMeD]-Piperidide; lactam N-11), 2.1 ×10⁻⁶ cm/s; that for `CC(C)C[C@@H]1NC(=O)[C@H](Cc2ccccc2)N(C)C(=O)[C@@H]2CCCN2C(=O)C[C@@H](C(=O)N2CCCCC2)NC(=O)[C@H](Cc2ccccc2)N(C)C(=O)[C@H](Cc2ccccc2)N(C)C(=O)[C@H](COC(C)(C)C)NC(=O)[C@H](CC(C)C)N(C)C(=O)CN(C)C(=O)[C@H]([C@@H](C)O)NC(=O)[C@H](CC(C)C)N(C)C1=O` [pd203] (P[NMeF]L[NMeL]T[Sar][NMeL]S(tBu)[NMeF][NMeF]D-Piperidide; lactam N-11), 2.1 ×10⁻⁶ cm/s. As to `CC(C)C[C@@H]1NC(=O)[C@H](C)N(C)C(=O)C[C@@H](C(=O)N2CCCCC2)NC(=O)[C@H](CC(C)C)N(C)C(=O)CN(C)C(=O)[C@H]([C@@H](C)O)NC(=O)[C@H](Cc2ccccc2)N(C)C(=O)[C@H](Cc2ccccc2)N(C)C(=O)[C@H](CC(C)C)NC(=O)[C@H](Cc2ccccc2)N(C)C(=O)[C@H](CC(C)C)N(C)C1=O` [pd204] ([NMeA]L[NMeL][NMeF]L[NMeF][NMeF]T[Sar][NMeL]D-Piperidide; lactam N-11), the Papp A→B at 180 min was found to be 2 ×10⁻⁶ cm/s. Same read-out and setting: the result for `CC[C@H](C)[C@@H]1NC(=O)[C@H](Cc2ccccc2)N(C)C(=O)CN(C)C(=O)C[C@@H](C(=O)N2CCCCC2)NC(=O)[C@H](C(C)C)N(C)C(=O)[C@H](COC(C)(C)C)NC(=O)[C@H](CC(C)C)N(C)C(=O)[C@H](Cc2ccccc2)N(C)C(=O)CN(C)C(=O)[C@H]([C@@H](C)O)NC(=O)[C@H](Cc2ccccc2)N(C)C1=O` [pd205] ([Sar][NMeF]I[NMeF]T[Sar][NMeF][NMeL]S(tBu)[NMeV]D-Piperidide; lactam N-11) reads 1.8 ×10⁻⁶ cm/s. Turning to `CC(C)C[C@@H]1NC(=O)[C@H](Cc2ccccc2)N(C)C(=O)[C@H]2CCCN2C(=O)C[C@@H](C(=O)N2CCCCC2)NC(=O)[C@H](Cc2ccccc2)N(C)C(=O)[C@H](Cc2ccccc2)N(C)C(=O)[C@H](COC(C)(C)C)NC(=O)[C@H](CC(C)C)N(C)C(=O)CN(C)C(=O)[C@H]([C@@H](C)O)NC(=O)[C@H](CC(C)C)N(C)C1=O` [pd206] ([dP][NMeF]L[NMeL]T[Sar][NMeL]S(tBu)[NMeF][NMeF]D-Piperidide; lactam N-11), the Papp A→B at 180 min worked out at 1.8 ×10⁻⁶ cm/s.

The compound `CC(C)C[C@@H]1NC(=O)[C@H](Cc2ccccc2)N(C)C(=O)[C@H](COC(C)(C)C)NC(=O)[C@H](Cc2ccccc2)N(C)C(=O)[C@H](C)N(C)C(=O)[C@H](CC(C)C)N(C)C(=O)[C@@H](C)NC(=O)C[C@@H](C(=O)N2CCCCC2)N(C)C(=O)[C@H](Cc2ccccc2)N(C)C(=O)[C@H]([C@@H](C)O)NC(=O)[C@H](C(C)C)N(C)C1=O` [pd208] ([dA][NMeL][NMeA][NMeF]S(tBu)[NMeF]L[NMeV]T[NMeF][NMeD]-Piperidide; lactam N-11) displayed a Papp A→B at 180 min of 1.7 ×10⁻⁶ cm/s. Turning to `CC(C)C[C@@H]1NC(=O)[C@H](Cc2ccccc2)N(C)C(=O)[C@H](C)NC(=O)C[C@@H](C(=O)N2CCCCC2)N(C)C(=O)[C@H](Cc2ccccc2)N(C)C(=O)[C@H](Cc2ccccc2)N(C)C(=O)[C@H](COC(C)(C)C)NC(=O)[C@H](CC(C)C)N(C)C(=O)CN(C)C(=O)[C@H]([C@@H](C)O)NC(=O)[C@H](CC(C)C)N(C)C1=O` [pd209] (A[NMeF]L[NMeL]T[Sar][NMeL]S(tBu)[NMeF][NMeF][NMeD]-Piperidide; lactam N-11), the Papp A→B at 180 min was determined as 1.7 ×10⁻⁶ cm/s.

Consider `CC(C)C[C@H]1C(=O)N[C@@H](COC(C)(C)C)C(=O)N(C)[C@@H](Cc2ccccc2)C(=O)N(C)[C@@H](CC(C)C)C(=O)N[C@H](C(=O)N2CCCCC2)CC(=O)N[C@H](C(C)C)C(=O)N(C)[C@@H](Cc2ccccc2)C(=O)N[C@@H](C(C)C)C(=O)N(C)[C@@H](Cc2ccccc2)C(=O)N[C@@H]([C@@H](C)O)C(=O)N(C)CC(=O)N1C` [pd210] ([dV][NMeF]V[NMeF]T[Sar][NMeL]S(tBu)[NMeF][NMeL]D-Piperidide; lactam N-11), for which the Papp A→B at 180 min turned out to be 1.6 ×10⁻⁶ cm/s.

Compound `CC(C)C[C@@H]1NC(=O)[C@H](CC(C)C)N(C)C(=O)[C@H](C)N(C)C(=O)C[C@@H](C(=O)N2CCCCC2)NC(=O)[C@H](CC(C)C)N(C)C(=O)[C@H](Cc2ccccc2)N(C)C(=O)[C@H](Cc2ccccc2)N(C)C(=O)[C@H]([C@@H](C)O)NC(=O)[C@H](Cc2ccccc2)N(C)C1=O` [pd211] ([NMeA][NMeL]L[NMeF]T[NMeF][NMeF][NMeL]D-Piperidide; lactam N-9) had a Papp A→B at 180 min of 1.4 ×10⁻⁶ cm/s. The compound `CC(C)C[C@H]1C(=O)N[C@H](C(=O)N(C)[C@@H](Cc2ccccc2)C(=O)N[C@@H](C)C(=O)N2CCCCC2)CC(=O)N(C)[C@@H](C)C(=O)N[C@@H]([C@@H](C)O)C(=O)N(C)[C@@H](C)C(=O)N(C)[C@@H](CC(C)C)C(=O)N[C@@H](C(C)C)C(=O)N(C)[C@@H](Cc2ccccc2)C(=O)N[C@@H](Cc2ccccc2)C(=O)N1C` [pd212] ([NMeA]T[NMeA][NMeL]V[NMeF]F[NMeL]D[NMeF]A-Piperidide; lactam N-9) came in with a Papp A→B at 180 min of 1.4 ×10⁻⁶ cm/s.

The same data set, now with this note: human, Caco-2, Papp; Table 23-1, sequences where ARC = 3; read-out: Caco-2.
On to `CC(C)C[C@@H]1NC(=O)[C@H](Cc2ccccc2)N(C)C(=O)[C@@H]2CCCN2C(=O)C[C@@H](C(=O)N2CCCCC2)N(C)C(=O)[C@H](Cc2ccccc2)C(C)C(=O)[C@H](Cc2ccccc2)N(C)C(=O)[C@H](COC(C)(C)C)NC(=O)[C@H](C(C)C)N(C)C(=O)CN(C)C(=O)[C@H]([C@@H](C)O)NC(=O)[C@H](CC(C)C)N(C)C1=O` (stereo partly drawn) [pd196] (P[NMeF]L[NMeL]T[Sar][NMeV]S(tBu)[X7][NMeD]-Piperidide; lactam N-10), for which the Papp A→B at 180 min was 4 ×10⁻⁶ cm/s.

Staying with this data set, now noted: human, Caco-2; read-out: Caco-2.
`CC[C@H](C)[C@@H]1NC(=O)[C@H](CC(C)C)N(C)C(=O)[C@H](C)N(C)C(=O)[C@H]([C@H](C)O)NC(=O)[C@H](Cc2ccccc2)N(C)C(=O)[C@H](C)N(C)C(=O)[C@@H](C)N(C)C(=O)C[C@@H](C(=O)N(C)[C@@H](Cc2ccccc2)C(=O)N(C)[C@@H](Cc2ccccc2)C(=O)N[C@@H](C)C(=O)N2CCCCC2)NC(=O)[C@H](C(C)C)N(C)C(=O)[C@H](CC(C)C)N(C)C1=O` [pd201] ([dNMeA][NMeA][NMeF][aThr][NMeA][NMeL]I[NMeL][NMeV]D[NMeF][NMeF]A-Piperidide; lactam N-10): the Papp A→B at 180 min turned out to be 2.3 ×10⁻⁶ cm/s.
